The supplement of paper PMC13380429

Assays:
Calu-3 [1] = assay: drug sensitivity score (DSS) for viability; higher = more toxic; extreme values may be limits of the assay; conditions: 72 h
Caco-2 [2] = assay: as above; conditions: 72 h
U2OS [3] = assay: as above; conditions: 72 h
HepG2 [4] = assay: as above; conditions: 72 h
Vero E6 [5] = assay: as above; conditions: 72 h
[6] = tested on: A549-ACE2 infected with SARS-CoV-2; assay: SARS-CoV-2 infection rate relative to DMSO; higher = more infection; conditions: 24 h
[7] = tested on: A549-ACE2 infected with SARS-CoV-2; assay: cell count relative to DMSO; higher = less toxic; conditions: 24 h
Calu-3 [8] = assay: cell viability relative to DMSO; higher = less toxic; conditions: 72 h
Caco-2 [9] = assay: as above; conditions: 72 h
U2OS [10] = assay: as above; conditions: 72 h
HepG2 [11] = assay: as above; conditions: 72 h
Vero E6 [12] = assay: as above; conditions: 72 h
[13] = tested on: A549-ACE2 infected with SARS-CoV-2; assay: morphology score (similarity to uninfected cells); higher = more like uninfected cells; conditions: 24 h
A549-ACE2 [14] = assay: phospholipidosis EC50; higher = less potent phospholipidosis inducer
A549-ACE2 [15] = assay: drug-induced phospholipidosis relative to tamoxifen; higher = more phospholipidosis
Calu-3 [16] = assay: relative viability EC50 (midpoint between 100% and the lowest measured viability); higher = less toxic; conditions: 72 h
Caco-2 [17] = assay: as above; conditions: 72 h
U2OS [18] = assay: as above; conditions: 72 h
Vero E6 [19] = assay: as above; conditions: 72 h
HepG2 [20] = assay: as above; conditions: 72 h

c1ccc(-c2nn3c(c2-c2ccnc4cc(OCCN5CCOCC5)ccc24)CCC3)nc1
Conditions | drug sensitivity score | relative viability EC50 [nM]
Caco-2 [2] | 0 | –
Caco-2 [17] | – | > 10000
Calu-3 [1] | 0 | –
Calu-3 [16] | – | > 10000
HepG2 [4] | 1.6 | –
U2OS [3] | 1.5 | –
U2OS [18] | – | > 10000
Vero E6 [5] | 0 | –
Vero E6 [19] | – | > 10000

Conditions | SARS-CoV-2 infection rate [%] | cell count [%] | cell viability [%] | morphology score | phospholipidosis EC50 [nM]
A549-ACE2 [14], 24 h | – | – | – | – | 15200
A549-ACE2 [14], 72 h | – | – | – | – | 12700
Caco-2 [9], 1 nM | – | – | 94.1 | – | –
Caco-2 [9], 10 nM | – | – | 106 | – | –
Caco-2 [9], 100 nM | – | – | 95.8 | – | –
Caco-2 [9], 1000 nM | – | – | 100 | – | –
Caco-2 [9], 10000 nM | – | – | 94.6 | – | –
Calu-3 [8], 1 nM | – | – | 102 | – | –
Calu-3 [8], 10 nM | – | – | 86.3 | – | –
Calu-3 [8], 100 nM | – | – | 104 | – | –
Calu-3 [8], 1000 nM | – | – | 96 | – | –
Calu-3 [8], 10000 nM | – | – | 101 | – | –
HepG2 [11], 1 nM | – | – | 103 | – | –
HepG2 [11], 10 nM | – | – | 100 | – | –
HepG2 [11], 100 nM | – | – | 96.6 | – | –
HepG2 [11], 1000 nM | – | – | 95.7 | – | –
HepG2 [11], 10000 nM | – | – | 74.7 | – | –
U2OS [10], 1 nM | – | – | 95.4 | – | –
U2OS [10], 10 nM | – | – | 105 | – | –
U2OS [10], 100 nM | – | – | 91.6 | – | –
U2OS [10], 1000 nM | – | – | 90.4 | – | –
U2OS [10], 10000 nM | – | – | 76.5 | – | –
Vero E6 [12], 1 nM | – | – | 102 | – | –
Vero E6 [12], 10 nM | – | – | 99.8 | – | –
Vero E6 [12], 100 nM | – | – | 111 | – | –
Vero E6 [12], 1000 nM | – | – | 108 | – | –
Vero E6 [12], 10000 nM | – | – | 105 | – | –
[6], 0.3 µM | 82 | – | – | – | –
[6], 3 µM | 97 | – | – | – | –
[6], 10 µM | 108 | – | – | – | –
[6], 30 µM | 106 | – | – | – | –
[7], 0.3 µM | – | 108 | – | – | –
[7], 3 µM | – | 104 | – | – | –
[7], 10 µM | – | 96 | – | – | –
[7], 30 µM | – | 95 | – | – | –
[13], 0.3 µM | – | – | – | 0.43 | –
[13], 3 µM | – | – | – | 0.25 | –
[13], 10 µM | – | – | – | 0.09 | –
[13], 30 µM | – | – | – | -0.11 | –

drug-induced phospholipidosis [%], A549-ACE2 [15]
Conditions | 0.3 µM | 0.833333 µM | 3.33333 µM | 6.66667 µM | 10 µM | 30 µM
24 h | 7.41 | 15.4 | 31.7 | 44.4 | 57.5 | 78.6
48 h | 5.26 | 4.41 | 16.2 | 19.5 | 30.1 | 52.8
72 h | 2.76 | -1.59 | 7.52 | 15.3 | 29.5 | 58.6

O=Nc1ccc(O)c2ncccc12 [NSC-3852]
Conditions | drug sensitivity score | relative viability EC50 [nM]
Caco-2 [2] | 8 | –
Caco-2 [17] | – | 1730
HepG2 [4] | 6.9 | –
HepG2 [20] | – | 1320
U2OS [3] | 9.3 | –
U2OS [18] | – | 1370
Vero E6 [5] | 7.5 | –
Vero E6 [19] | – | 1180

Conditions | SARS-CoV-2 infection rate, [6] [%] | cell count, [7] [%] | cell viability, Caco-2 [9] [%] | cell viability, HepG2 [11] [%] | cell viability, U2OS [10] [%] | cell viability, Vero E6 [12] [%] | morphology score, [13]
1 nM | – | – | 86.2 | 103 | 93.5 | 99.8 | –
10 nM | – | – | 101 | 89.6 | 99.5 | 102 | –
100 nM | – | – | 98.5 | 101 | 96.2 | 98.4 | –
0.3 µM | 106 | 97 | – | – | – | – | -0.15
1000 nM | – | – | 81.6 | 77.7 | 70.2 | 71.5 | –
3 µM | 96 | 76 | – | – | – | – | -0.09
10 µM | 48 | 63 | – | – | – | – | 0.41
10000 nM | – | – | 9.2 | 33 | 7.2 | 30.1 | –
30 µM | 14 | 41 | – | – | – | – | 0.64

drug-induced phospholipidosis [%], A549-ACE2 [15]
Conditions | 0.3 µM | 0.833333 µM | 3.33333 µM | 6.66667 µM | 10 µM
24 h | 0.34 | -0.2 | 2.51 | 14.6 | 10.9
48 h | 3.9 | 1.44 | – | – | –
72 h | 3.53 | 1.53 | – | – | –

CC(C)C[C@H](NC(=O)[C@H](CCc1ccccc1)NC(=O)CN1CCOCC1)C(=O)N[C@@H](Cc1ccccc1)C(=O)N[C@@H](CC(C)C)C(=O)[C@@]1(C)CO1 [carfilzomib]
Conditions | drug sensitivity score | relative viability EC50 [nM]
Caco-2 [2] | 34.7 | –
Caco-2 [17] | – | 9.3
Calu-3 [1] | 30.9 | –
Calu-3 [16] | – | 26.7
HepG2 [4] | 32.8 | –
HepG2 [20] | – | 18
U2OS [3] | 34.1 | –
U2OS [18] | – | 16.1
Vero E6 [5] | 22.6 | –
Vero E6 [19] | – | 112

Conditions | SARS-CoV-2 infection rate, [6] [%] | cell count, [7] [%] | cell viability, Caco-2 [9] [%] | cell viability, Calu-3 [8] [%] | cell viability, HepG2 [11] [%] | cell viability, U2OS [10] [%] | cell viability, Vero E6 [12] [%] | morphology score, [13]
1 nM | – | – | 91.9 | 104 | 94.6 | 96 | 100 | –
10 nM | – | – | 50.8 | 91.2 | 68.8 | 76.7 | 97.6 | –
0.1 µM | 51 | 69 | – | – | – | – | – | 0.25
100 nM | – | – | 8.6 | 5.8 | 9 | 0.4 | 55.4 | –
0.3 µM | 24 | 49 | – | – | – | – | – | 0.29
1 µM | 22 | 34 | – | – | – | – | – | 0.25
1000 nM | – | – | 4.4 | 4.3 | -0.4 | -0.5 | 5.3 | –
3 µM | 20 | 26 | – | – | – | – | – | 0.18
10000 nM | – | – | 6 | 1.7 | -0.3 | -0.3 | 2.3 | –

Conditions | drug-induced phospholipidosis [%]
A549-ACE2 [15], 0.3 µM, 24 h | -37.6

COc1cc(/C=C/C(=O)CC(=O)/C=C/c2ccc(O)c(OC)c2)ccc1O [curcumin]
Conditions | drug sensitivity score | relative viability EC50 [nM]
Caco-2 [2] | 4.6 | –
Caco-2 [17] | – | 1790
Calu-3 [1] | 0.3 | –
Calu-3 [16] | – | > 10000
HepG2 [4] | 2.2 | –
U2OS [3] | 4 | –
U2OS [18] | – | 3080
Vero E6 [5] | 0.6 | –
Vero E6 [19] | – | > 10000

Conditions | SARS-CoV-2 infection rate, [6] [%] | cell count, [7] [%] | cell viability, Caco-2 [9] [%] | cell viability, Calu-3 [8] [%] | cell viability, HepG2 [11] [%] | cell viability, U2OS [10] [%] | cell viability, Vero E6 [12] [%] | morphology score, [13]
1 nM | – | – | 97.6 | 99.9 | 104 | 99.8 | 99.9 | –
10 nM | – | – | 102 | 103 | 102 | 107 | 96.3 | –
100 nM | – | – | 97.9 | 102 | 98.2 | 95.5 | 95.2 | –
0.3 µM | 102 | 89 | – | – | – | – | – | -0.12
1000 nM | – | – | 89.7 | 108 | 101 | 99.2 | 98.2 | –
3 µM | 93 | 107 | – | – | – | – | – | 0.05
10 µM | 99 | 99 | – | – | – | – | – | 0.27
10000 nM | – | – | 45.6 | 80.6 | 55.7 | 30 | 82.9 | –
30 µM | 14 | 64 | – | – | – | – | – | 0.48

drug-induced phospholipidosis [%], A549-ACE2 [15]
Conditions | 0.3 µM | 0.833333 µM | 3.33333 µM | 6.66667 µM | 10 µM | 30 µM
24 h | 1.25 | 2.99 | 3.97 | 17.5 | 28.2 | 105
48 h | 3.07 | 1.47 | 2.2 | 8.78 | 11 | –
72 h | 3.47 | 0.682 | 1.8 | 7.67 | 8.59 | –
